# Data published in ChEMBL document CHEMBL2384984, “Multivalent presentation of a hydrolytically stable GM(3) lactone mimetic as modulator of melanoma cells motility and adhesion” (2013).
# The source made the active and inactive calls. The calls are words filed in the database; no cut-off is given here.
# Key:
# A-375 [1] = test: Cytotoxicity against human A375 cells at 10 to 50 uM after 24 hrs by crystal-violet staining-based method; assay type: functional, cell-based
# A-375 [2] = test: Inhibition of human A375 cell adhesion to fibronectin-coated dish at 50 uM incubated for 30 mins measured after 1 to 4 hrs by crystal violet staining-based method relative to control; assay type: functional
# A-375 [3] = test: Induction of anoikis in human A375 cells at 50 uM after 24 hrs by FITC-labeled Annexin V-propidium iodide staining-based FACS flow cytometric analysis (reference value: 15%); assay type: functional
# A-375 [4] = test: Inhibition of serum-starved human A375 cell migration at 50 uM after 24 hrs relative to control; assay type: functional; details: A-375, 24 h
# [5] = target: RAC-alpha serine/threonine-protein kinase (Homo sapiens) (UniProt P31749); test: Inhibition of AKT phosphorylation in human A375 cells at 50 uM after 24 hrs by Western blotting analysis; assay type: cell-based; details: A-375
# Chain of RAC-alpha serine/threonine-protein kinase (Homo sapiens) (P31749 whole entry): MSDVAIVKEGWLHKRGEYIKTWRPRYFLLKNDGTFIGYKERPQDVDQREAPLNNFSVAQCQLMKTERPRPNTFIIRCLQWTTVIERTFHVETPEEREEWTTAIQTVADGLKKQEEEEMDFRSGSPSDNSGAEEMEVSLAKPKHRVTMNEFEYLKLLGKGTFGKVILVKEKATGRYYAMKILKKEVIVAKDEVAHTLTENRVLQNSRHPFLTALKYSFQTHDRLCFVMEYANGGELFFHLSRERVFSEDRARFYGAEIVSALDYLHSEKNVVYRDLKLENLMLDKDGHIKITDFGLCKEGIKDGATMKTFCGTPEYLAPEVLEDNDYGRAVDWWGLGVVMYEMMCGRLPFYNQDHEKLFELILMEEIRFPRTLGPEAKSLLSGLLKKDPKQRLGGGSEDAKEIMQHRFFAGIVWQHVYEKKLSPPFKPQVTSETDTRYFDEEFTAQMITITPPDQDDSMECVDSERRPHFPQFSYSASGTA
Structure (SMILES),Activity (A-375 [1]),inhibition (A-375 [2]),Activity (A-375 [3]),inhibition at 50 µM (A-375 [2]),inhibition at 50 µM (A-375 [4]),inhibition [5]
CC(C)(C)OC(=O)NCCN(CCC(=O)NCCNC(=O)CCCCC(=O)NCCCCCCO[C@H]1O[C@H](CO)[C@H](O)C2=C1SC[C@@]1(C[C@@H](O)[C@@H](O)[C@@H]([C@H](O)CO)O1)O2)CCC(=O)NCCNC(=O)CCCCC(=O)NCCCCCCO[C@H]1O[C@H](CO)[C@H](O)C2=C1SC[C@@]1(C[C@@H](O)[C@@H](O)[C@@H]([C@H](O)CO)O1)O2,inactive,inactive,,,,
CC(=O)OC[C@@H](OC(C)=O)[C@@H]1O[C@@]2(CSC3=C(O2)[C@@H](OC(C)=O)[C@@H](COC(C)=O)O[C@@H]3OCCCCCCNC(=O)CCCCC(=O)Oc2ccc([N+](=O)[O-])cc2)C[C@H](OC(C)=O)[C@@H]1OC(C)=O,,inactive,,,,
CCCOc1c2cc(CCCn3cc(CCO[C@H]4O[C@H](CO)[C@H](O)C5=C4SC[C@]4(C[C@@H](O)[C@@H](O)[C@@H]([C@H](O)CO)O4)O5)nn3)cc1Cc1cc(CCCn3cc(CCO[C@H]4O[C@H](CO)[C@H](O)C5=C4SC[C@]4(C[C@@H](O)[C@@H](O)[C@@H]([C@H](O)CO)O4)O5)nn3)cc(c1OCCC)Cc1cc(CCCn3cc(CCO[C@H]4O[C@H](CO)[C@H](O)C5=C4SC[C@]4(C[C@@H](O)[C@@H](O)[C@@H]([C@H](O)CO)O4)O5)nn3)cc(c1OCCC)Cc1cc(CCCn3cc(CCO[C@H]4O[C@H](CO)[C@H](O)C5=C4SC[C@]4(C[C@@H](O)[C@@H](O)[C@@H]([C@H](O)CO)O4)O5)nn3)cc(c1OCCC)C2,inactive,,32%,33%,60%,Active
CO[C@H]1O[C@H](CO)[C@H](O)C2=C1SC[C@]1(C[C@H](O)[C@H](O)[C@H]([C@H](O)CO)O1)O2,inactive,inactive,,,,
O=C(CCCCC(=O)NCCNC(=O)CCN(CCC(=O)NCCNC(=O)CCCCC(=O)NCCCCCCO[C@H]1O[C@H](CO)[C@H](O)C2=C1SC[C@]1(C[C@@H](O)[C@@H](O)[C@@H]([C@H](O)CO)O1)O2)CCN(CCC(=O)NCCNC(=O)CCCCC(=O)NCCCCCCO[C@H]1O[C@H](CO)[C@H](O)C2=C1SC[C@@]1(C[C@@H](O)[C@@H](O)[C@@H]([C@H](O)CO)O1)O2)CCC(=O)NCCNC(=O)CCCCC(=O)NCCCCCCO[C@H]1O[C@H](CO)[C@H](O)C2=C1SC[C@@]1(C[C@@H](O)[C@@H](O)[C@@H]([C@H](O)CO)O1)O2)NCCCCCCO[C@H]1O[C@H](CO)[C@H](O)C2=C1SC[C@]1(C[C@@H](O)[C@@H](O)[C@@H]([C@H](O)CO)O1)O2,inactive,inactive,,,,
CC(C)(C)OC(=O)NCCN(CCC(=O)NCCN)CCC(=O)NCCN,,inactive,,,,
